{"source": "ChEMBL document CHEMBL1275409", "about": "“Antimicrobial-resistant pathogens in intensive care units in Canada: results of the Canadian National Intensive Care Unit (CAN-ICU) study, 2005-2006” (2008)", "format_in_all_cases": "functional", "key": {"Staphylococcus aureus [1]": {"tested_on": "Staphylococcus aureus", "experiment": "Antimicrobial activity against methicillin-resistant Staphylococcus aureus isolated from ICU patient respiratory tract assessed as resistant isolates by broth microdilution method"}, "Staphylococcus aureus [2]": {"tested_on": "Staphylococcus aureus", "experiment": "Antimicrobial activity against methicillin-resistant Staphylococcus aureus isolated from ICU patient wound assessed as resistant isolates by broth microdilution method"}, "Staphylococcus aureus [3]": {"tested_on": "Staphylococcus aureus", "experiment": "Antimicrobial activity against methicillin-resistant Staphylococcus aureus isolated from ICU patient urine assessed as resistant isolates by broth microdilution method"}, "Staphylococcus aureus [4]": {"tested_on": "Staphylococcus aureus", "experiment": "Antimicrobial activity against methicillin-resistant Staphylococcus aureus isolated from ICU patient blood assessed as resistant isolates by broth microdilution method"}, "Staphylococcus aureus [5]": {"tested_on": "Staphylococcus aureus", "experiment": "Antimicrobial activity against methicillin-resistant Staphylococcus aureus assessed as resistant isolates by broth microdilution method"}, "Staphylococcus aureus [6]": {"tested_on": "Staphylococcus aureus", "experiment": "Antimicrobial activity against methicillin-susceptible Staphylococcus aureus isolated from ICU patient respiratory tract assessed as resistant isolates by broth microdilution method"}, "Staphylococcus aureus [7]": {"tested_on": "Staphylococcus aureus", "experiment": "Antimicrobial activity against methicillin-susceptible Staphylococcus aureus isolated from ICU patient wound assessed as resistant isolates by broth microdilution method"}, "Staphylococcus aureus [8]": {"tested_on": "Staphylococcus aureus", "experiment": "Antimicrobial activity against methicillin-susceptible Staphylococcus aureus isolated from ICU patient urine assessed as resistant isolates by broth microdilution method"}, "Staphylococcus aureus [9]": {"tested_on": "Staphylococcus aureus", "experiment": "Antimicrobial activity against methicillin-susceptible Staphylococcus aureus isolated from ICU patient blood assessed as resistant isolates by broth microdilution method"}, "Staphylococcus aureus [10]": {"tested_on": "Staphylococcus aureus", "experiment": "Antimicrobial activity against methicillin-susceptible Staphylococcus aureus assessed as resistant isolates by broth microdilution method"}, "Enterobacter cloacae [11]": {"tested_on": "Enterobacter cloacae", "experiment": "Antimicrobial activity against carbapenem-resistant Enterobacter cloacae isolated from ICU patient respiratory tract assessed as resistant isolates by broth microdilution method"}, "Haemophilus influenzae [12]": {"tested_on": "Haemophilus influenzae", "experiment": "Antimicrobial activity against Haemophilus influenzae assessed as resistant isolates by broth microdilution method"}, "Haemophilus influenzae [13]": {"tested_on": "Haemophilus influenzae", "experiment": "Antimicrobial activity against Haemophilus influenzae isolated from ICU patient blood assessed as resistant isolates by broth microdilution method"}, "Haemophilus influenzae [14]": {"tested_on": "Haemophilus influenzae", "experiment": "Antimicrobial activity against Haemophilus influenzae isolated from ICU patient wound assessed as resistant isolates by broth microdilution method"}, "Haemophilus influenzae [15]": {"tested_on": "Haemophilus influenzae", "experiment": "Antimicrobial activity against Haemophilus influenzae isolated from ICU patient respiratory tract assessed as resistant isolates by broth microdilution method"}, "Enterobacter cloacae [16]": {"tested_on": "Enterobacter cloacae", "experiment": "Antimicrobial activity against carbapenem-resistant Enterobacter cloacae isolated from ICU patient wound assessed as resistant isolates by broth microdilution method"}, "Enterobacter cloacae [17]": {"tested_on": "Enterobacter cloacae", "experiment": "Antimicrobial activity against carbapenem-resistant Enterobacter cloacae isolated from ICU patient urine assessed as resistant isolates by broth microdilution method"}, "Enterobacter cloacae [18]": {"tested_on": "Enterobacter cloacae", "experiment": "Antimicrobial activity against carbapenem-resistant Enterobacter cloacae isolated from ICU patient blood assessed as resistant isolates by broth microdilution method"}, "Enterobacter cloacae [19]": {"tested_on": "Enterobacter cloacae", "experiment": "Antimicrobial activity against carbapenem-resistant Enterobacter cloacae assessed as resistant isolates by broth microdilution method"}, "Pseudomonas aeruginosa [20]": {"tested_on": "Pseudomonas aeruginosa", "experiment": "Antimicrobial activity against carbapenem-resistant Pseudomonas aeruginosa isolated from ICU patient respiratory tract assessed as resistant isolates by broth microdilution method"}, "Pseudomonas aeruginosa [21]": {"tested_on": "Pseudomonas aeruginosa", "experiment": "Antimicrobial activity against carbapenem-resistant Pseudomonas aeruginosa isolated from ICU patient wound assessed as resistant isolates by broth microdilution method"}, "Pseudomonas aeruginosa [22]": {"tested_on": "Pseudomonas aeruginosa", "experiment": "Antimicrobial activity against carbapenem-resistant Pseudomonas aeruginosa isolated from ICU patient urine assessed as resistant isolates by broth microdilution method"}, "Pseudomonas aeruginosa [23]": {"tested_on": "Pseudomonas aeruginosa", "experiment": "Antimicrobial activity against carbapenem-resistant Pseudomonas aeruginosa isolated from ICU patient blood assessed as resistant isolates by broth microdilution method"}, "Pseudomonas aeruginosa [24]": {"tested_on": "Pseudomonas aeruginosa", "experiment": "Antimicrobial activity against carbapenem-resistant Pseudomonas aeruginosa assessed as resistant isolates by broth microdilution method"}, "Klebsiella pneumoniae [25]": {"tested_on": "Klebsiella pneumoniae", "experiment": "Antimicrobial activity against ESBL producing Klebsiella pneumoniae isolated from ICU patient respiratory tract assessed as resistant isolates by broth microdilution method"}, "Klebsiella pneumoniae [26]": {"tested_on": "Klebsiella pneumoniae", "experiment": "Antimicrobial activity against ESBL producing Klebsiella pneumoniae isolated from ICU patient wound assessed as resistant isolates by broth microdilution method"}, "Klebsiella pneumoniae [27]": {"tested_on": "Klebsiella pneumoniae", "experiment": "Antimicrobial activity against ESBL producing Klebsiella pneumoniae isolated from ICU patient urine assessed as resistant isolates by broth microdilution method"}, "Klebsiella pneumoniae [28]": {"tested_on": "Klebsiella pneumoniae", "experiment": "Antimicrobial activity against ESBL producing Klebsiella pneumoniae isolated from ICU patient blood assessed as resistant isolates by broth microdilution method"}, "Klebsiella pneumoniae [29]": {"tested_on": "Klebsiella pneumoniae", "experiment": "Antimicrobial activity against ESBL producing Klebsiella pneumoniae assessed as resistant isolates by broth microdilution method"}, "Escherichia coli [30]": {"tested_on": "Escherichia coli", "experiment": "Antimicrobial activity against CTX-M ESBL producing Escherichia coli isolated from ICU patient respiratory tract assessed as resistant isolates by broth microdilution method"}, "Escherichia coli [31]": {"tested_on": "Escherichia coli", "experiment": "Antimicrobial activity against CTX-M ESBL producing Escherichia coli isolated from ICU patient wound assessed as resistant isolates by broth microdilution method"}, "Escherichia coli [32]": {"tested_on": "Escherichia coli", "experiment": "Antimicrobial activity against CTX-M ESBL producing Escherichia coli isolated from ICU patient urine assessed as resistant isolates by broth microdilution method"}, "Escherichia coli [33]": {"tested_on": "Escherichia coli", "experiment": "Antimicrobial activity against CTX-M ESBL producing Escherichia coli isolated from ICU patient blood assessed as resistant isolates by broth microdilution method"}, "Escherichia coli [34]": {"tested_on": "Escherichia coli", "experiment": "Antimicrobial activity against CTX-M ESBL producing Escherichia coli assessed as resistant isolates by broth microdilution method"}, "Streptococcus pneumoniae [35]": {"tested_on": "Streptococcus pneumoniae", "experiment": "Antimicrobial activity against penicillin-resistant Streptococcus pneumoniae isolated from ICU patient respiratory tract assessed as resistant isolates by broth microdilution method"}, "Streptococcus pneumoniae [36]": {"tested_on": "Streptococcus pneumoniae", "experiment": "Antimicrobial activity against penicillin-resistant Streptococcus pneumoniae isolated from ICU patient wound assessed as resistant isolates by broth microdilution method"}, "Streptococcus pneumoniae [37]": {"tested_on": "Streptococcus pneumoniae", "experiment": "Antimicrobial activity against penicillin-resistant Streptococcus pneumoniae isolated from ICU patient blood assessed as resistant isolates by broth microdilution method"}, "Streptococcus pneumoniae [38]": {"tested_on": "Streptococcus pneumoniae", "experiment": "Antimicrobial activity against penicillin-resistant Streptococcus pneumoniae assessed as resistant isolates by broth microdilution method"}, "[39]": {"tested_on": "Staphylococcus epidermidis", "experiment": "Antimicrobial activity against methicillin-resistant Staphylococcus epidermidis isolated from ICU patient wound assessed as resistant isolates by broth microdilution method"}, "[40]": {"tested_on": "Staphylococcus epidermidis", "experiment": "Antimicrobial activity against methicillin-resistant Staphylococcus epidermidis isolated from ICU patient urine assessed as resistant isolates by broth microdilution method"}, "[41]": {"tested_on": "Staphylococcus epidermidis", "experiment": "Antimicrobial activity against methicillin-resistant Staphylococcus epidermidis isolated from ICU patient blood assessed as resistant isolates by broth microdilution method"}, "[42]": {"tested_on": "Staphylococcus epidermidis", "experiment": "Antimicrobial activity against methicillin-resistant Staphylococcus epidermidis assessed as resistant isolates by broth microdilution method"}, "[43]": {"tested_on": "Staphylococcus epidermidis", "experiment": "Antimicrobial activity against methicillin-susceptible Staphylococcus epidermidis isolated from ICU patient respiratory tract assessed as resistant isolates by broth microdilution method"}, "[44]": {"tested_on": "Staphylococcus epidermidis", "experiment": "Antimicrobial activity against methicillin-susceptible Staphylococcus epidermidis isolated from ICU patient wound assessed as resistant isolates by broth microdilution method"}, "[45]": {"tested_on": "Staphylococcus epidermidis", "experiment": "Antimicrobial activity against methicillin-susceptible Staphylococcus epidermidis isolated from ICU patient urine assessed as resistant isolates by broth microdilution method"}, "[46]": {"tested_on": "Staphylococcus epidermidis", "experiment": "Antimicrobial activity against methicillin-susceptible Staphylococcus epidermidis isolated from ICU patient blood assessed as resistant isolates by broth microdilution method"}, "[47]": {"tested_on": "Staphylococcus epidermidis", "experiment": "Antimicrobial activity against methicillin-susceptible Staphylococcus epidermidis assessed as resistant isolates by broth microdilution method"}}}
{"smiles": "C[C@@H](O)[C@H]1C(=O)N2C(C(=O)O)=C(S[C@@H]3CN[C@H](C(=O)N(C)C)C3)[C@H](C)[C@H]12", "note": "[MEROPENEM]", "values": [{"measurement": "Activity", "setting": "Staphylococcus aureus [1]", "value": 100, "unit": "%"}, {"measurement": "Activity", "setting": "Staphylococcus aureus [2]", "value": 100, "unit": "%"}, {"measurement": "Activity", "setting": "Staphylococcus aureus [3]", "value": 100, "unit": "%"}, {"measurement": "Activity", "setting": "Staphylococcus aureus [4]", "value": 100, "unit": "%"}, {"measurement": "Activity", "setting": "Staphylococcus aureus [5]", "value": 100, "unit": "%"}, {"measurement": "Activity", "setting": "Staphylococcus aureus [6]", "value": 0, "unit": "%"}, {"measurement": "Activity", "setting": "Staphylococcus aureus [7]", "value": 0, "unit": "%"}, {"measurement": "Activity", "setting": "Staphylococcus aureus [8]", "value": 0, "unit": "%"}, {"measurement": "Activity", "setting": "Staphylococcus aureus [9]", "value": 0, "unit": "%"}, {"measurement": "Activity", "setting": "Staphylococcus aureus [10]", "value": 0, "unit": "%"}, {"measurement": "Activity", "setting": "Enterobacter cloacae [11]", "value": 0, "unit": "%"}, {"measurement": "Activity", "setting": "Haemophilus influenzae [12]", "value": 0, "unit": "%"}, {"measurement": "Activity", "setting": "Haemophilus influenzae [13]", "value": 0, "unit": "%"}, {"measurement": "Activity", "setting": "Haemophilus influenzae [14]", "value": 0, "unit": "%"}, {"measurement": "Activity", "setting": "Haemophilus influenzae [15]", "value": 0, "unit": "%"}, {"measurement": "Activity", "setting": "Enterobacter cloacae [16]", "value": 0, "unit": "%"}, {"measurement": "Activity", "setting": "Enterobacter cloacae [17]", "value": 0, "unit": "%"}, {"measurement": "Activity", "setting": "Enterobacter cloacae [18]", "value": 0, "unit": "%"}, {"measurement": "Activity", "setting": "Enterobacter cloacae [19]", "value": 0, "unit": "%"}, {"measurement": "Activity", "setting": "Pseudomonas aeruginosa [20]", "value": 0, "unit": "%"}, {"measurement": "Activity", "setting": "Pseudomonas aeruginosa [21]", "value": 0, "unit": "%"}, {"measurement": "Activity", "setting": "Pseudomonas aeruginosa [22]", "value": 0, "unit": "%"}, {"measurement": "Activity", "setting": "Pseudomonas aeruginosa [23]", "value": 0, "unit": "%"}, {"measurement": "Activity", "setting": "Pseudomonas aeruginosa [24]", "value": 0, "unit": "%"}, {"measurement": "Activity", "setting": "Klebsiella pneumoniae [25]", "value": 12.5, "unit": "%"}, {"measurement": "Activity", "setting": "Klebsiella pneumoniae [26]", "value": 18.9, "unit": "%"}, {"measurement": "Activity", "setting": "Klebsiella pneumoniae [27]", "value": 17.8, "unit": "%"}, {"measurement": "Activity", "setting": "Klebsiella pneumoniae [28]", "value": 9.1, "unit": "%"}, {"measurement": "Activity", "setting": "Klebsiella pneumoniae [29]", "value": 13.6, "unit": "%"}, {"measurement": "Activity", "setting": "Escherichia coli [30]", "value": 0, "unit": "%"}, {"measurement": "Activity", "setting": "Escherichia coli [31]", "value": 0, "unit": "%"}, {"measurement": "Activity", "setting": "Escherichia coli [32]", "value": 0, "unit": "%"}, {"measurement": "Activity", "setting": "Escherichia coli [33]", "value": 0, "unit": "%"}, {"measurement": "Activity", "setting": "Escherichia coli [34]", "value": 0, "unit": "%"}, {"measurement": "Activity", "setting": "Streptococcus pneumoniae [35]", "value": 0.5, "unit": "%"}, {"measurement": "Activity", "setting": "Streptococcus pneumoniae [36]", "value": 0, "unit": "%"}, {"measurement": "Activity", "setting": "Streptococcus pneumoniae [37]", "value": 0, "unit": "%"}, {"measurement": "Activity", "setting": "Streptococcus pneumoniae [38]", "value": 0.4, "unit": "%"}, {"measurement": "Activity", "setting": "[39]", "value": 100, "unit": "%"}, {"measurement": "Activity", "setting": "[40]", "value": 100, "unit": "%"}, {"measurement": "Activity", "setting": "[41]", "value": 100, "unit": "%"}, {"measurement": "Activity", "setting": "[42]", "value": 100, "unit": "%"}, {"measurement": "Activity", "setting": "[43]", "value": 0, "unit": "%"}, {"measurement": "Activity", "setting": "[44]", "value": 29.2, "unit": "%"}, {"measurement": "Activity", "setting": "[45]", "value": 0, "unit": "%"}, {"measurement": "Activity", "setting": "[46]", "value": 1.8, "unit": "%"}, {"measurement": "Activity", "setting": "[47]", "value": 9.3, "unit": "%"}]}
